Experimental data published in ChEMBL document CHEMBL3044761, “Lethal Activity of a Trehalase Inhibitor, Validoxylamine A, against Mamestra brassicae and Spodoptera litura” (J Pestic Sci, 1994).

Experiments:
[1] = Inhibition of Rhizoctonia solani alpha-glucosidase; settings: read-out: I50
Trehalase = target: T1, Trehalase (Rattus norvegicus, UniProt O70282); test: Inhibition of Rattus norvegicus (rat) trehalase; settings: read-out: I50
T1 sequence (O70282 whole entry): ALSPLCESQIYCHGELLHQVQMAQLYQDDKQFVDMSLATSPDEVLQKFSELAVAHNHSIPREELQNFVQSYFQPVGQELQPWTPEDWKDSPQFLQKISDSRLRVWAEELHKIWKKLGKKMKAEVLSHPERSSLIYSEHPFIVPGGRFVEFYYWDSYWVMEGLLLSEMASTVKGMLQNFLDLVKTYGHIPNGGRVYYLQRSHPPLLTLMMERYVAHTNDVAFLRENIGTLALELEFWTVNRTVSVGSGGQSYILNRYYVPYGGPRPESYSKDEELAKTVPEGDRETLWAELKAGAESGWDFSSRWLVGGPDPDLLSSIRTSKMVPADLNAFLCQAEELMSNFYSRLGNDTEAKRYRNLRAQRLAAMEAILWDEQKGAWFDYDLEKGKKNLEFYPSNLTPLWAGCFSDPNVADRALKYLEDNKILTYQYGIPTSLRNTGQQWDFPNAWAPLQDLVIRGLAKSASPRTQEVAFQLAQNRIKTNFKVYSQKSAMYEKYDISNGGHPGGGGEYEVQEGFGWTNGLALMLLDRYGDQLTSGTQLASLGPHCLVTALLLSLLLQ

Spodoptera litura [2] = test: Insecticidal activity against last-instar Spodoptera litura larvae assessed as mortality; format: functional
Spodoptera litura [3] = test: Insecticidal activity against last-instar Spodoptera litura larvae assessed as larval pupal intermediate injected at 10 ug/larvae (reference value: […]); format: functional
Spodoptera litura [4] = test: Insecticidal activity against last-instar Spodoptera litura larvae assessed as wing pad separation at 50 ug/larvae topical application (reference value: 100%); format: functional
Spodoptera litura [5] = test: Insecticidal activity against last-instar Spodoptera litura larvae assessed as wing pad separation injected at 50 ug/larvae (reference value: 100%); format: functional
Spodoptera litura [6] = test: Insecticidal activity against last-instar Spodoptera litura larvae assessed as normal pupae at 50 ug/larvae topical application (reference value: 100%); format: functional
Trehalase (Bombyx mori) [7] = target: T2, Trehalase (Bombyx mori) (UniProt P32358); test: Inhibition of Bombyx mori trehalase activity in total ovaries at 10 ug/pupa; settings: Female gonad
T2 sequence (whole entry): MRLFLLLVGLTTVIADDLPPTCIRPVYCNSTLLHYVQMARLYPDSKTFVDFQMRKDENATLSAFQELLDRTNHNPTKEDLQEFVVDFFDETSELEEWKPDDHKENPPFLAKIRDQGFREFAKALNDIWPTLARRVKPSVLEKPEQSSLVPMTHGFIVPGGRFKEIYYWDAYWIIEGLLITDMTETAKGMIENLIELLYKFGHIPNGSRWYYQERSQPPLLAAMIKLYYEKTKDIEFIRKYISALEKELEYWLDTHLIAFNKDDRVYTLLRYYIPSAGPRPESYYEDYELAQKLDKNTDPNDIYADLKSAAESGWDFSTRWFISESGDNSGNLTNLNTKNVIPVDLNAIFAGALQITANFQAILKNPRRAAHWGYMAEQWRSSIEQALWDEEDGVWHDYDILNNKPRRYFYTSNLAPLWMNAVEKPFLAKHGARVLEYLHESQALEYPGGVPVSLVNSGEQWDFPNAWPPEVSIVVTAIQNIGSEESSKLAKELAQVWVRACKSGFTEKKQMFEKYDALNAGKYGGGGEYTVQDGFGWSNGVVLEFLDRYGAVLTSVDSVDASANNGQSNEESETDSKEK

Trehalase (Bombyx mori) [8] = target: T2, Trehalase (Bombyx mori); test: Inhibition of Bombyx mori trehalase activity in arborescent region of colleterial glands at 1 ug/pupa
Chitinase A1 = target: T3, Chitinase A1 (Thanatephorus cucumeris (strain AG1-IB / isolate 7/3/14) (Lettucebottom rot fungus) (Rhizoctonia solani), UniProt M5BZV0); test: Inhibition of Rhizoctonia solani chitinase; settings: read-out: I50
T3 sequence (M5BZV0 whole entry): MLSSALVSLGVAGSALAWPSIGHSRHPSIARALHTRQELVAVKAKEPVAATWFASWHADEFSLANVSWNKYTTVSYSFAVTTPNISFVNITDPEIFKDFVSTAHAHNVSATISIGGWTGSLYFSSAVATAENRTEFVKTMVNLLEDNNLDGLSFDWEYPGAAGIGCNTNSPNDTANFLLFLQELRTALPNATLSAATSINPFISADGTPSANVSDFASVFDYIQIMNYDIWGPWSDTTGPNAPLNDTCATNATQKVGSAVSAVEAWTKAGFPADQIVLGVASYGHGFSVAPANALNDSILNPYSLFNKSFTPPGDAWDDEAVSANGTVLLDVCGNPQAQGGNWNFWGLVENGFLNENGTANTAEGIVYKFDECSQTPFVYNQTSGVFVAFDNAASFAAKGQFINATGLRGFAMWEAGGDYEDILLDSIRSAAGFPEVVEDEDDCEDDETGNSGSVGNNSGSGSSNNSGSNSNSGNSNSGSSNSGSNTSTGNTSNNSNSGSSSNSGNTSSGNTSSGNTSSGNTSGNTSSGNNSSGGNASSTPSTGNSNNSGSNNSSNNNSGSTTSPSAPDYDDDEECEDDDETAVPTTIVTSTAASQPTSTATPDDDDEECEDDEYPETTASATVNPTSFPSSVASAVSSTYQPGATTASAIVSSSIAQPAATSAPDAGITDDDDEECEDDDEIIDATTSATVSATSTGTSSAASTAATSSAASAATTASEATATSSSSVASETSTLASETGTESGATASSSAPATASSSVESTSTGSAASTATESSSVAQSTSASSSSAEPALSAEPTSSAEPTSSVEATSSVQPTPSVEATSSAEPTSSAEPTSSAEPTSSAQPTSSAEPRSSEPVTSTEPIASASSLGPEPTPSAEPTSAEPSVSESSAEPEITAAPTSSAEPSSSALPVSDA

Mamestra brassicae [9] = test: Insecticidal activity against last-instar Mamestra brassicae larvae assessed as partial pupation injected at 5 ug/larvae (reference value: 10%); format: functional
Mamestra brassicae [10] = test: Insecticidal activity against last-instar Mamestra brassicae larvae assessed as wing pad separation injected at 10 ug/larvae (reference value: 0%); format: functional
Mamestra brassicae [11] = test: Insecticidal activity against last-instar Mamestra brassicae larvae assessed as normal pupae injected at 5 ug/larvae (reference value: 90%); format: functional
Mamestra brassicae [12] = test: Insecticidal activity against last-instar Mamestra brassicae larvae assessed as normal pupae injected at 1 ug/larvae (reference value: 90%); format: functional
Spodoptera litura [13] = test: Insecticidal activity against last-instar Spodoptera litura larvae assessed as normal pupae injected at 2 ug/larvae (reference value: 100%); format: functional
Mamestra brassicae [14] = test: Insecticidal activity against last-instar Mamestra brassicae larvae assessed as larval-pupal intermediate at 50 ug/larvae topical application (reference value: 0%); format: functional
Mamestra brassicae [15] = test: Insecticidal activity against last-instar Mamestra brassicae larvae assessed as larval-pupal intermediate injected at 50 ug/larvae (reference value: 0%); format: functional
Mamestra brassicae [16] = test: Insecticidal activity against last-instar Mamestra brassicae larvae assessed as larval-pupal intermediate injected at 10 ug/larvae (reference value: 0%); format: functional
Mamestra brassicae [17] = test: Insecticidal activity against last-instar Mamestra brassicae larvae assessed as larval-pupal intermediate injected at 1 ug/larvae (reference value: 0%); format: functional

`OCC1=C[C@H](N[C@H]2C[C@H](CO)[C@@H](O)[C@H](O)[C@H]2O)[C@H](O)[C@@H](O)[C@@H]1O` [VALIDOXYLAMINE A] showed an IC50 [1] of over 1000 µM, an IC50 (Trehalase) of 0.0049 µM and an LD50 (Spodoptera litura [2]) of 2.42 µg. The Activity (Spodoptera litura [3]) was 25%, the Activity (Spodoptera litura [4]) was 5% and the Activity (Spodoptera litura [5]) was 13%. The Activity (Spodoptera litura [6]) was 85%, the inhibition (Trehalase (Bombyx mori) [7]) was 78% and the inhibition (Trehalase (Bombyx mori) [8]) was 78%. It also gave an IC50 (Chitinase A1) of over 1000 µM, an Activity (Mamestra brassicae [9]) of 27% and an Activity (Mamestra brassicae [10]) of 7%. It also gave an Activity (Mamestra brassicae [11]) of 7%, an Activity (Mamestra brassicae [12]) of 27% and an Activity (Spodoptera litura [13]) of 60%. The Activity (Mamestra brassicae [14]) was 0%, the Activity (Mamestra brassicae [15]) was 100% and the Activity (Mamestra brassicae [16]) was 80%. The Activity (Mamestra brassicae [17]) was 27%.
